According to publication PMC5570892, “Indole-based perenosins as highly potent HCl transporters and potential anti-cancer agents” (Scientific Reports, 2017):
Several values for one entry are separate records, joined by “and”; a condition that tells them apart may be missing. Identical values can stand only once.

How the values were obtained:
[1] = pKa by UV spectrophotometric titration in aqueous solution; type: physicochemical; details: for pK a (aq): apparent pKa, hexafluorophosphate buffered DMSO:water 50:50, 25 °C; for solubility in the pKa titration solvent system: hexafluorophosphate buffered DMSO:water 50:50
Excerpt: The pK a at which protonation of the imine (N2, see Fig. 3) occurs gives an indication of the optimum pH for the binding of chloride anions. This is an important consideration in anti-cancer drug development as the external pH environment of cancer cells is mildly acidic (pH 6.7)[53] compared to that of healthy cells (pH 7.2–7.5)[54]. This can be exploited to selectively target cancer cells and potentially reduce the cytotoxic effects of perenosins when used as therapeutics for anti-cancer treatment. The apparent pK a values, shown in Table 1, for compounds 1d and 2–8 were determined both in aqueous solution (pK a (aq)) and in the presence of a 1-palmitoyl-2-oleoyl-sn-glycero-3-phosphocholine (POPC) lipid bilayer membrane (pK a (mem)). UV spectrophotometric titrations were conducted by varying the pH condition from neutral to acidic with the titration of either HPF6 or HCl.
The apparent pK a values were derived from nonlinear curve fitting of the absorbance plotted against the pH; global fitting of both wavelengths corresponding to the neutral and protonated species were performed whenever feasible, see Supplementary Information for details.
S6.1 pKa Studies in Aqueous Solution pKa values for compounds 1d, 2, 4, 5, 7 and 8 were determined experimentally in aqueous solution […]
in absorbance bet ween the UV-Vis spectra of the protonated and the neutral species. The titration solution was made up with a hexafluorophosphate buffered (100 mM) DMSO:water 50:50 solution (4990 μL) and a transporter solution (10 μL, 25 mM), and the pH of this was recorded. The UV-Vis spectra were recorded on an Agilent Cary 100 UV-Vis spectrophotometer at 25 °C with baseline correction, using standard 10 mm quartz glass cells. A baseline absorbance was measured on a hexafluorophosphate buffered (100 mM) DMSO:water 50:50 solution, and then the absorbance of the titration solution was measured. The pH of the solution was decreased stepwise by adding small aliquots of hexafluorophosphoric acid ([…]). After each pH decrease an absorbance measurement was taken. The absorbance at a certain wavelength (noted for each compound below) was plotted against the pH and then fitted using a dose response curve in OriginPro 9.1, where the point of inflection corresponds to the apparent pKa in aqueous solution.
Figure S38. Absorbance spectra taken over the course of a pH-spectrophotometric titration of 1d (25 mM) in a hexafluorophosphate buffered (100 mM) DMSO:water 50:50 mixture. Inset: Abs vs. pH with dose response curve fit and the point of inflection corresponding to the pKa value.
(1 picture or pasted object on this page, not shown here)

[2] = NMDG-Cl assay by HPTS (H^+/Cl^− symport); type: biochemical; details: for EC50 NMDG-Cl (by HPTS): H^+/Cl^− symport, no gramicidin or oleic acid; for EC50 (Gra) NMDG-Cl (by HPTS): in the presence of gramicidin 0.1 mol%; for EC50 (OA) NMDG-Cl (by HPTS): in the presence of oleic acid 2 mol%
Description: The selectivity for Cl^−>H^+/OH^− transport of the perenosins was quantified using a modified NMDG-Cl assay. Unilamellar vesicles loaded with HPTS (1 mM) and N-methyl-D-glucamine chloride (NMDG-Cl) (100 mM), buffered to pH 7 with HEPES (10 mM) were prepared. Free base NMDG (0.5 M) was added increasing the extravesicular solution to pH 8, and the dissipation of this gradient following the addition of receptors was monitored. Dissipation of pH gradient indicates H^+/Cl^− symport (or the functionally equivalent OH^−/Cl^− exchange) mediated by perenosins. Gramicidin D (Gra) is a proton channel added to facilitate H^+ transport. The addition of oleic acid (OA), a naturally occurring fatty acid found in cell membranes, allowed the investigation of the enhancement in H^+/Cl^− symport, in the presence of oleic acid. Anion transporters can assist the fatty acid flip-flop mechanism by taking on the role of a flippase for fatty acid anions via binding to the anionic carboxylate head group, masking the charge and allowing rapid passage of the head group through the lipid bilayer. This in turn accelerates the natural proton transport mediated by fatty acids in biological membranes.
For all cases EC50 values were obtained from dose-response experiments and subsequent Hill analysis (see Supplementary Information). Chloride selectivity was then quantified to give a selectivity factor (SG), shown in Table 2, using the ratio of the EC50 values. From the previous cationophore coupled assays, it was evident that the capability of perenosins to facilitate electrogenic chloride transport is negligible, therefore an absence in selectivity for Cl^−>H^+/OH^− was expected. […] FOA values for the overall H^+/Cl^− cotransport rate were calculated for compounds 1d and 2–6 in the presence of OA and are also shown in Table 2. […] In the presence of fatty acids, an alternative pathway that involves the diffusion of the fatty acid complex and free fatty acids could replace this step. […] This may be likely due to the competitive binding of the receptors to the carboxylate head group so inhibiting chloride binding and transport.
S10.8. General Procedure for the HPTS Assay
Unilamellar vesicles were prepared using previously reported literature procedures16. A lipid film of POPC (1-palmitoyl-2-oleoyl-sn-glycero-3-phosphocholine) was prepared from a chloroform solution under reduced pressure and then dried under vacuum for 4 or more hours. The lipid film was rehydrated by vortexing with an internal solution containing HPTS (1 mM). The lipid suspension was then subjected to 9 freeze-thaw cycles and left to rest at room temperature for 30 minutes. After this, the suspension was extruded 25 times through a 200 nm polycarbonate membrane resulting in unilamellar vesicles of a mean diameter of 200 nm. The un-encapsulated HPTS was removed by size exclusion chromatography using a sephadex G-25 column and an external solution eluent that does not contain HPTS. The lipid solution obtained after dialysis was diluted to a standard volume (usually 10 mL) with the external buffered solution to obtain a lipid stock of known concentration.
In each experiment identical internal and external solutions were used with various salts (NMDG -Cl or sodium gluconate) buffered with HEPES (10 mM) to pH 7.0, and are detailed below.
The lipid stock was diluted with the external buffer solution to a standard volume (2.5 mL), to afford a solution with a lipid concentration of 0.1 mM. The compounds were added as a DMSO solution (10 μL) and when an assisting ionophore (gramicidin) or oleic acid (a naturally occurring monosaturated fatty acid) was used this was also added as a DMSO solution (5 μL, 0.1 mol% or 2 mol% respectively (with respect to lipid)). To start the experiment, after the addition of the compounds, a base pulse (25 μL, of NMDG or TBAOH (0.5 M)) was spiked in to generate a pH gradient across the membrane. […]

| Structure (SMILES) | pK a (aq) [1] | EC50 NMDG-Cl (by HPTS) [2] | EC50 (Gra) NMDG-Cl (by HPTS) [2] [mol%] | EC50 (OA) NMDG-Cl (by HPTS) [2] [mol%] | solubility in the pKa titration solvent system [1] |
| --- | --- | --- | --- | --- | --- |
| CCCCCc1cc2cc(C)cc(/N=C/c3[nH]c4ccccc4c3C)c2[nH]1 [Perenosin 8] | 6.28 |  |  |  |  |
| CCCCCc1cc(/N=C/c2[nH]c(C)cc2C)c2[nH]ccc2c1 [Perenosin 1d] | 6.35 | 0.0107 mol% and 0.01073 mol% | 0.00656 | 0.00925 |  |
| CCCCCc1cc(/N=C/c2[nH]c3ccccc3c2C)c2[nH]ccc2c1 [Perenosin 7] | 5.51 |  |  |  |  |
| CCCCCc1cc2cc(C)cc(/N=C/c3[nH]c(C)c(CCCCC)c3C)c2[nH]1 [Perenosin 6] |  | 0.00249 mol% | 0.00211 | 0.00208 | precipitation was observed |
| CCCCCc1cc2cc(C(F)(F)F)cc(/N=C/c3[nH]c(C)cc3C)c2[nH]1 [Perenosin 3] |  | 0.01151 mol% | 0.00879 | 0.04912 | precipitation was observed |
| CCCCCc1c(C)[nH]c(/C=N/c2cc(C)cc3cc[nH]c23)c1C [Perenosin 5] | 6.44 | 0.00231 mol% | 0.00095 | 0.00273 |  |
| CCCCCc1cc2cc(C)cc(/N=C/c3[nH]c(C)cc3C)c2[nH]1 [Perenosin 2] | 6.08 | 0.00062 mol% | 0.00037 | 0.00085 |  |
| CCCc1cc2cc(C)cc(/N=C/c3[nH]c(C)cc3C)c2[nH]1 [Perenosin 4] | 6.78 | 0.00069 mol% | 0.00038 | 0.00008 |  |
